System: E-cadherin expression in SW620 cells
Experiment: In-cell Western (ICW) cell-based functional assay of E-cadherin expression in SW620 cells
Conditions: Homo sapiens, SW-620; change in expression level of E-cadherin in response to 10 μM compound, SW620 cells, 24 hours
Description: SW620 and H520 cells (5×10^4/100 μL) were seeded in a 96-well plate prior to treatment. Cells were treated with 10 μM concentration of synthesized compound in quadruplicate for 24 hours in RPMI 1640 supplemented medium and 100 μg/mL penicillin-streptomycin. The cells were then fixed with 100% methanol for 20 minutes at 4° C. The wells were then washed 2 times with PBS, permeabilized in 2% bovine serum albumin (BSA) and 0.2% TritonX-100 in PBS for 30 minutes at room temperature with gentle agitation, and blocked in LI-COR blocking buffer for 30 minutes at room temperature with gentle agitation. The cells were then incubated with the following primary antibodies: anti-E-Cadherin (1:500) and anti-α-Tubulin (1:1000) diluted in blocking buffer (1:1 dilution in PBS) for 2 hours at room temperature with gentle agitation. The cells were washed 4 times in PBS-T for 5 minutes each, and then incubated with the following secondary antibodies conjugated to a fluorescent entity: IRDye 800-conjugated goat anti-rabbit IgG (1:1000) and IRDye-700-conjugated goat anti-mouse IgG (1:2000) in blocking buffer (1:1 dilution in PBS) with gentle agitation for 1 h at room temperature. The cells were washed 4 times in PBS-T for 5 minutes each followed by a single wash with PBS. All liquid was removed from the wells and the plates were visualized and analyzed on the Odyssey IR imaging system (LI-COR Biosciences).
The assay was further optimized in the following manner. The cells were washed 2 times with PBS, fixed in 100% methanol at room temperature for 15 minutes, and again washed 2 times with PBS. The cells were then incubated with the following primary antibodies: anti-E-Cadherin (1:200) and anti-α-Tubulin (1:2000) diluted in ice cold 2% bovine serum albumin (BSA) and 0.2% TritonX-100 in PBS for 1 hour at room temperature with gentle agitation. The cells were washed 2 times in PBS and then incubated with the following secondary antibodies conjugated to a fluorescent entity: Licor 800-conjugated goat anti-rabbit IgG (1:2000) and IRDye-700-conjugated goat anti-mouse IgG (1:2000) in ice cold 2% BSA and 0.2% TritonX-100 in PBS with gentle agitation for 45 minutes at room temperature. The wells were washed 2 times in PBS, dried, and analyzed as previously mentioned.
N-(3-(Arylamino)alkyl)-5-arylisoxazole-3-carboxamide analogs were synthesized as described above. Changes in expression level of E-cadherin in response to 10 μM compound in SW620 cells was determined in the cell-based functional assay as described above, and the data are shown in Table II. The compound number corresponds to the compound numbers used in Table I.
EC50 of inducement of E-cadherin expression in SW620 cells was determined in the cell-based functional assay as described above, and the data are shown in Table III. The compound number corresponds to the compound numbers used in Table I.

Structure (SMILES) | fold induction at 10 µM
O=C(NCCCN(Cc1ccc(O)c(O)c1)Cc1ccc(O)c(O)c1)c1cc(-c2ccccc2)[nH]n1 [Compound 27, N-(3-(bis(3,4-dihydroxybenzyl)amino)propyl)-5-phenyl-1H-pyrazole-3-carboxamide] | 1.67
CC(=O)n1cc(CNCCCNC(=O)c2cc(-c3ccccc3)on2)c2ccccc21 [Compound 13, N-(3-(((1-acetyl-1H-indol-3-yl)methyl)amino)propyl)-5-phenylisoxazole-3-carboxamide] | 0.91

Reference: patent US9505729B2, “Isoxazole analogs as mediators of transcriptional induction of E-cadherin” (Vanderbilt University, priority 2014, dated 2016)
